Results published in patent US20230302133A1, “TARGETED PROTEIN DEGRADATION IN THERAPEUTIC CELLS” (The Regents of the University of California, priority 2020, published 2023).
Residues, ends and D or L forms follow the SMILES beside them. *: point of attachment. Cbz = O=C(OCc1ccccc1)*

What was measured:
GFP-SZ17 [GFP: P42212] = experiment: cell-based or functional assay
[1] = test system: STUD degradation of GFP in Jurkat T cells; experiment: Inhibitor assay: rescue of GFP fluorescence in Jurkat T cells expressing STUD and GFP target; format: cell-based; conditions: 5 hours
Method: Using the 2 plasmid system as described above, we lentivirally transduce Jurkat T cells. 72 hours after removal of lentivirus, we treat these Jurkat T cells and an untransduced control cell line with either 5 μM of the proteasomal inhibitor MG-132, 1 μM of the cullin ring ligase inhibitor MLN4924, 100 nM of the lysosomal inhibitor Bafilomycin Al, or DMSO vehicle control and incubate at 37 C for 5 hours. Using flow cytometry to measure GFP fluorescence following treatment, we observe that GFP fluorescence can indeed be rescued with MG-132 and MLN4924 when cells express both a functional STUD and a GFP target relative to DMSO vehicle control.
(§1) Inhibitor Assays: 100,000 cells were plated in a 96 well round bottom plate with either 5 μM MG-132 (Sigma-Aldrich #M7449-200UL), 1 μM MLN4924(Active Biochem #A-1139), 100 nM Bafilomycin A1(Enzo Life Sciences #BML-CM110-0100), or DMSO vehicle control and incubated at 37 C for 5 hours. After incubation, cells were pelleted by centrifugation at 400×g for 4 minutes. Supernatant was then removed and cells were washed once with 200 μL PBS. Cells were pelleted again (400×g for 4 minutes) and resuspended in flow buffer (PBS+2% FBS) for assay by flow cytometry.

CD19BBz CAR = experiment: MLN4924 rescue of STUD knockdown of CD19BBz CAR expression in CD8+ primary T cells; format: cell-based, human; conditions: 1 μM MLN4924, 5 hours, 37 C
Method: Engineered CD8+T cells expressing were cocultured with NALM6 target cells and measured activation of the CAR by quantifying target cell lysis and expression of the T cell activation marker CD25.
as §1

NALM6 target cells = experiment: MLN dose response: ON switch CAR lysis of NALM6 target cells; format: cell-based, human; conditions: MLN4924 1 μM to 0.015625 μM, 72 hours, CD8+ T cells with antiCD19BBz CAR-SynZip and memSTUD
Method: CD8+primary human T cells were engineered with an antiCD19BBz CAR fused to a SynZip and a memSTUD that binds the SynZip using the same plasmids outlined in FIG. 14A by lentiviral transduction. As a control, we also lentivirally transduce CD8+primary human T cells with an antiCD19BBz and a SynZip memSTUD which cannot bind the CAR. These engineered cells and an untransduced control were cocultured with NALM6 target cells for 72 hours at 37 C in the presence of MLN4924 ranging from 1 μM to 0.015625 μM and a DMSO vehicle control. After coculture, target cell lysis was assayed by flow cytometry. Specific target cell lysis of each cell line relative to NALM6 cells cultured alone in the same conditions was then calculated.
100 μL containing media containing a 2×concentration of MLN4924 was added to each well of seeded cells. Cells with MLN4924 were incubated at 37 C for 72 hours. DMSO vehicle at the same concentration as the max MLN4924 concentration was added to cells as a control.

[2] = test system: CAR construct with SynZIP17 fused to its C-terminus; experiment: Degradation of CAR-SZ17 fusion in Jurkat cells; format: cell-based; conditions: degron directly fused to the CAR
Method: Next, the soluble STUD was used to target a membrane protein for degradation. The ability of the STUD to degrade a CAR in Jurkat cells was tested by generating a CAR construct with SynZIP17 fused to its C-terminus. However, while these STUDs worked to some extent, none of them were able to completely knockdown CAR expression (see FIG. 8).
Membrane targeting STUD: Membrane targeting cells were introduced by lentiviral transduction of two plasmids. […] Cells were then analyzed by flow cytometry. […] CAR and SynNotch expression was measured by antibody staining for a peptide tag fused to the extracellular domain of the CAR/SynNotch.

SynZIP18(K->R)-5xGS-RRRG (designed binder)
fold change of median normalized GFP fluorescence, flow cytometry, Jurkat T cells (STUD-induced degradation) (GFP-SZ17 [GFP: P42212]): 42 fold

NS(=O)(=O)OC[C@@H]1C[C@@H](n2ccc3c(N[C@H]4CCc5ccccc54)ncnc32)C[C@@H]1O [MLN4924]
GFP fluorescence relative to DMSO vehicle control ([1]; 1 μM MLN4924, 37 C, cells with functional STUD and GFP target): rescued
CAR expression after cullin inhibitor (CD19BBz CAR): rescue
specific target cell lysis (NALM6 target cells): dose dependent

bafilomycin
GFP fluorescence relative to DMSO vehicle control ([1]; 100 nM Bafilomycin, 37 C): No changes

RRRG [Bonger degron]
reduction of CAR expression [2]: over 90%

CC(C)C[C@@H](C=O)NC(=O)[C@H](CC(C)C)NC(=O)[C@H](CC(C)C)NC(=O)OCc1ccccc1 [MG-132] (Cbz-Leu-Leu-Leu-aldehyde)
GFP fluorescence relative to DMSO vehicle control ([1]; 5 μM MG-132, 37 C, cells with functional STUD and GFP target): rescued
